Measurements as given in US8304447B2, “2-acylaminopropoanol-type glucosylceramide synthase inhibitors” (Genzyme Corporation, priority 2007, dated 2012).
Like-named read-outs stand apart in the source and are kept apart here.

Test system: GM3
Assay: GM3 Elisa assay
Type: cell-based
Conditions: B16-FO cells, read-out: IC50_uM_Mean
Summary of the method: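 Cellular GM3 ELISA: fixed cells probed with monoclonal anti-GM3 (NeuAc), HRP-conjugated anti-IgM and fluorogenic Quantablu substrate, read at Ex 325/Em 420. Cells were B16-FO, treated 2 days after a 6 h attachment on collagen-coated wells.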

[1] = 48 h, Table 2, 2 days incubation
[2] = 48 h, Table 1, 2 days incubation

Row | Compound | IC50 (Table 3 (IC 50 Values)) [µM] | further results
1 | CC(O)(CCCCCC(=O)N[C@H](CN1CCCC1)[C@H](O)c1ccc2c(c1)OCCO2)C1CCCC1 (stereo partly drawn) [Compound 633] | 0.1 to 1 | –
2 | CCCCCCCC(=O)N[C@H](CN1CCCC1CN1CCCC1)[C@H](O)c1ccc2c(c1)OCCO2 (stereo partly drawn) [Compound 316] | – | IC50 [1]: 3 to 10 µM
3 | O=C(NCc1ccc(F)cc1)N[C@H](CN1CCCC1)[C@H](O)c1ccc2c(c1)OCCO2 [Compound 17, 1-((1R,2R)-1-(2,3-dihydrobenzo[β][1,4]dioxin-6-yl)-1-hydroxy-3-(pyrrolidin-1-yl)propan-2-yl)-3-(4-fluorobenzyl)urea] | – | IC50 [2]: ≤ 0.1 µM
4 | O=C(Cc1ccc(-c2ccc(Cl)cc2)cc1)N[C@H](CN1CCCC1)[C@H](O)c1ccc2c(c1)OCCO2 [Compound 48, 2-(4′-chlorobiphenyl-4-yl)-N-((1R, 2R)-1-(2,3-dihydrobenzo[β][1,4]dioxin-6-yl)-1-hydroxy-3-(pyrrolidin-1-yl)propan-2-yl)acetamide] | – | IC50 [2]: ≤ 0.1 µM
5 | COc1ccc(OCCC(=O)N[C@H](CN2CCCC2)[C@H](O)c2ccc(OC)c(OC)c2)cc1 [Compound 274] | – | IC50 [1]: 1 to 3 µM
6 | CCCCOc1ccc(C(CN2CCCC2)NC(=O)CCCCC(=O)c2ccc(OC)cc2)cc1 (stereo not drawn) [Compound 588] | 3 to 10 | –
7 | COc1ccc([C@@H](O)[C@@H](CN2CCCC2)NC(=O)CCCOc2ccc(C(C)=O)cc2)cc1OC [Compound 278] | – | IC50 [1]: > 10 µM
8 | CC(C)(C)c1ccc(C(=O)CCCCC(=O)N[C@H](CN2CCCC2)[C@H](O)c2ccc3c(c2)OCCO3)cc1 [Compound 155, 6-(4-tert-butylphenyl)-N-((1R,2R)-1-(2,3-dihydrobenzo[β][1,4]dioxin-6-yl)-1-hydroxy-3-(pyrrolidin-1-yl)propan-2-yl)-6-oxohexanamide] | – | IC50 [2]: 0.1 to 1 µM
9 | COc1ccc(C(=O)CCCCCC(=O)N[C@H](CN2CCCC2)[C@H](O)c2ccc(OC(F)(F)F)cc2)cc1 [Compound 666] | 0.1 to 1 | –
10 | COc1ccc(C(=O)CCCCCC(=O)N[C@H](CN2CCCC2)[C@H](O)c2ccc(OC)c(C)c2)cc1 [Compound 390] | ≤ 0.1 | –
11 | COc1ccc([C@@H](O)[C@@H](CN2CCCC2)NC(=O)Cc2ccc(OC(F)(F)F)cc2)cc1F [Compound 342] | 0.1 to 1 | –
12 | O=C(CCCCCN1Cc2ccccc2C1=O)N[C@H](CN1CCCC1)[C@H](O)c1ccc2c(c1)OCCO2 [Compound 486] | 1 to 3 | –
13 | COc1ccc(CCOc2ccc([C@@H](O)[C@@H](CN3CCCC3)NC(=O)CCCCC(=O)c3ccc(OC)cc3)cc2)cc1 [Compound 440] | ≤ 0.1 | –
14 | COc1ccc(C(=O)CCCCC(=O)N[C@H](CN2CCCC2)[C@H](O)c2ccc3c(c2)OC(F)(F)O3)cc1 [Compound 408] | 1 to 3 | –
15 | COc1ccc(OCCC(=O)N[C@H](CN2CCCC2)[C@H](O)c2ccc(OCc3ccccc3)cc2)cc1 [Compound 705] | ≤ 0.1 | –
16 | CCCCCCCC(=O)N[C@H](CN1CC2CC2C1)[C@H](O)c1ccc2c(c1)OCCO2 (stereo partly drawn) [Compound 517] | 0.1 to 1 | –
17 | O=C(CCCC#CC1(O)CCCCC1)N[C@H](CN1CCCC1)[C@H](O)c1ccc2c(c1)OCCO2 [Compound 631] | 3 to 10 | –
18 | CCCCCCCC(=O)N[C@H](CN1CCCC1)[C@H](O)c1ccc(CCOC)cc1 [Compound 478] | 0.1 to 1 | –

Row | Compound | IC50 (Table 3 (IC 50 Values)) [µM] | further results
19 | COc1ccc(C(=O)CCCCCC(=O)N[C@H](CN2CCC[C@H]2C)[C@@H](O)c2ccc3c(c2)OCCO3)cc1 [Compound 529] | ≤ 0.1 | –
20 | O=C(Cc1ccc(Oc2ccccc2)cc1)N[C@H](CN1CCCC1)[C@H](O)c1ccc2c(c1)OCCO2 [Compound 24, N-((1R,2R)-1-(2,3-dihydrobenzo[β][1,4]dioxin-6-yl)-1-hydroxy-3-(pyrrolidin-1-yl)propan-2-yl)-2-(4-phenoxyphenyl)acetamide] | – | IC50 [2]: 0.1 to 1 µM
21 | COc1ccc(C(=O)CCCCCC(=O)N[C@H](CN2CCCC2)C(O)C2CCCCC2)cc1 (stereo partly drawn) [Compound 471] | 1 to 3 | –
22 | COc1ccc(C(=O)CCCCCC(=O)N[C@H](CN2C[C@@H]3CC[C@H]2C3)[C@H](O)c2ccc3c(c2)OCCO3)cc1 [Compound 547] | ≤ 0.1 | –
23 | COc1ccc(C(=O)CCCCCC(=O)N[C@@H](CN(C)C)[C@@H](O)c2ccc3c(c2)OCCO3)cc1 [Compound 469] | 0.1 to 1 | –
24 | O=C(Cc1ccc(OC(F)(F)F)cc1)N[C@H](CN1CCCC1)[C@H](O)c1ccc(Cl)cc1 [Compound 381] | 1 to 3 | –
25 | COc1ccc(C(=O)CCCCCC(=O)N[C@H](CN2C3CCC2CC3)[C@H](O)c2ccc(OC(C)C)cc2)cc1 [Compound 377] | ≤ 0.1 | –
26 | COCCOc1ccc(C(=O)CCCCC(=O)N[C@H](CN2CCCC2)[C@H](O)c2ccc(OC(C)C)cc2)cc1 [Compound 453] | ≤ 0.1 | –
27 | O=C(CCCCC(=O)c1ccc(F)cc1)N[C@H](CN1C2CCC1CC2)[C@H](O)c1ccc2c(c1)OCCO2 [Compound 476] | 0.1 to 1 | –
28 | COc1ccc(C(=O)CCCCC(=O)N[C@H](CN2CCCC2)[C@H](O)c2ccc(Cl)cc2)cc1 [Compound 384] | 0.1 to 1 | –
29 | O=C(CCCCCn1cccn1)N[C@H](CN1CCCC1)[C@H](O)c1ccc2c(c1)OCCO2 [Compound 644] | 1 to 3 | –
30 | COc1ccc(OCCC(=O)N[C@H](CN2CC[C@H](O)C2)[C@H](O)c2ccc(OCCCCF)cc2)cc1 [Compound 502] | ≤ 0.1 | –
31 | O=C(CCCCCC(=O)c1ccc(F)cc1)N[C@H](CN1CCCC1)[C@H](O)c1ccc2c(c1)OCCO2 [Compound 628] | ≤ 0.1 | –
32 | CCCCCCCC(=O)N[C@H](Cn1ccnc1C)[C@H](O)c1ccc2c(c1)OCCO2 [Compound 571] | 3 to 10 | –
33 | CCCCOc1ccc(CC(CN2CCCC2)NC(=O)CCCCC(=O)c2ccc(OC)cc2)cc1 (stereo not drawn) [Compound 589] | 1 to 3 | –
34 | COc1ccc(OCCC(=O)N[C@H](CN2CC[C@H](F)C2)[C@H](O)c2ccc3c(c2)OCCO3)cc1 [Compound 511] | 3 to 10 | –
35 | COCCOc1ccc([C@@H](O)[C@@H](CN2CCCC2)NC(=O)CCCCC(=O)c2ccc(OC)cc2)cc1 [Compound 417] | ≤ 0.1 | –
36 | CCCCOc1ccc([C@@H](O)[C@@H](CN2CC[C@H](O)C2)NC(=O)CCCCC(=O)c2ccc(F)cc2)cc1 [Compound 657] | 0.1 to 1 | –
